Assay results taken from patent US6048892A, “Ester compound pesticide containing thereof” (Sumitomo Chemical Company, Limited, priority 1999, dated 2000).

Tests used:
[1] = system: common mosquitoes (Culex pipiens pallens); experiment: Biological Test 11: mosquitoes in cup over treated aluminum plate without direct contact, mortality; format: in vivo; details: 24 h
Protocol: After 0.64 ml of a 0.05 (w/v) % acetone solution of the present compounds was dropped into an aluminum plate (bottom diameter: 7 cm), acetone was air-dried. Ten female common mosquitoes (Culex pipiens pallens) were left in a polyethylene cup (diameter: 9 cm; depth: 4.5 cm) and the cup was sealed with a 16-mesh nylon net to prevent direct contact of the mosquitoes with the compound. The cup was placed upside down on the aluminum plate at 25° C. for 120 minutes. The cup was then removed from the aluminum plate, and water and feed were given to the mosquitoes. After 24 hours, the mortality was examined (two replicate).

[2] = system: German cockroaches (Blattela germanica); experiment: Biological Test 15: repellency, treated sheet shelter; format: in vivo; details: 1.0 ml of 0.1% by weight acetone solution on filter paper; 24 hours
Protocol: The obtained sheet was folded as to be a triangular tube where one side of the triangle-shaped base was 3 cm.
In a plastic cup (650 ml volume), said triangular tube was placed as a shelter (cockroach hiding residence). Ten adult German cockroaches (Blattela germanica) were placed in said plastic cup together with food and water and then observed the number of cockroaches in the shelter 24 hours later (two replicate). Repellency (%) was calculated by the following formula: [formula]

[3] = system: common mosquitoes (Culex pipiens pallens); experiment: Biological Test 7: knock-down of mosquitoes by sprayed oil solution; format: in vivo; details: 0.7 ml of 0.1% oil solution sprayed in 0.34 m^3 chamber; after 15 minutes
Protocol: Ten female common mosquitoes (Culex pipiens pallens) were left in a glass chamber (70 cm×70 cm×70 cm: 0.34 m^3). 0.7 ml of 0.1% oil solution prepared for each of the present compounds according to the formulation example 7 was sprayed with a spray gun at 0.8 atmospheric pressure. After 15 minutes, the rate of knocked-down mosquitoes was examined.

[4] = Toxicity Test: acute oral LD50; details: rat, in vivo, corn oil, fasted male 7-week old rats, after 7 days
Protocol: After subjecting the rats to a twenty-hour fasting, 0.1 ml of the diluted solution per 10 g weight was forcibly applied into the stomach of four male 7-week old rats. The rats were given food and water four hours after the application and thereafter regularly fed and watered, and kept in a cage. After 7 days, the mortality was examined for the rats and LD50 was calculated.

In the case of `Cc1ccc(COC(=O)[C@@H]2[C@H](/C=C(\Cl)C(F)(F)F)C2(C)C)o1` (relative stereo) [Compound (1), 5-methyl-2-furfuryl (1RS,cis)-3-(Z-2-chloro-3,3,3-trifluoroprop-1-enyl)-2,2-dimethylcyclopropanecarboxylate], the mortality at 500 µg/mL [1] was 100%, the “Repellency (%)” value [2] was 100% and the “rate of knocked-down mosquitoes” value [3] was no less than 90%. The LD50 at 168 h [4] was 300 mg/kg.
